Measured values reported in PubChem BioAssay AID248 (DTP/NCI, 2004).
Where “and” joins values, the source holds several entries; their conditions need not be identical. Equal entries are not always repeated. Toxic doses and inconclusive results are not listed.

Tested on: L1210 leukemia ip in BDF1 mice, survival T/C
Assay: NCI In Vivo Anticancer Drug Screen. Data for tumor model L1210 Leukemia (intraperitoneal) in B6D2F1 (BDF1) mice
Conditions: endpoint: mean survival time, higher = longer survival
How it was run: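 Tumor was transplanted into mice, which were then dosed with test compound or vehicle alone. Survival was recorded for each group, and the treated figure was expressed relative to the control figure.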

[1] = dose: 100.0 mg/kg/injection, schedule: Q01DX001 (ip), vehicle: saline
[2] = dose: 200.0 mg/kg/injection, schedule: Q01DX001 (ip), vehicle: saline
[3] = dose: 400.0 mg/kg/injection, schedule: Q01DX001 (ip), vehicle: saline
[4] = dose: 100.0 mg/kg/injection, schedule: Q04DX002 (ip), vehicle: Klucel (hydroxypropylcellulose) (HPC)
[5] = dose: 200.0 mg/kg/injection, schedule: Q04DX002 (ip), vehicle: Klucel (hydroxypropylcellulose) (HPC)
[6] = dose: 400.0 mg/kg/injection, schedule: Q04DX002 (ip), vehicle: Klucel (hydroxypropylcellulose) (HPC)
[7] = dose: 100.0 mg/kg/injection, schedule: Q01DX009 (ip), vehicle: Klucel (hydroxypropylcellulose) (HPC)
[8] = dose: 100.0 mg/kg/injection, schedule: Q04DX003 (ip), vehicle: Klucel (hydroxypropylcellulose) (HPC)
[9] = dose: 200.0 mg/kg/injection, schedule: Q04DX003 (ip), vehicle: Klucel (hydroxypropylcellulose) (HPC)
[10] = dose: 400.0 mg/kg/injection, schedule: Q04DX003 (ip), vehicle: Klucel (hydroxypropylcellulose) (HPC)
[11] = dose: 75.0 mg/kg/injection, schedule: Q01DX001 (ip), vehicle: other
[12] = dose: 150.0 mg/kg/injection, schedule: Q01DX001 (ip), vehicle: other
[13] = dose: 300.0 mg/kg/injection, schedule: Q01DX001 (ip), vehicle: other
[14] = dose: 100.0 mg/kg/injection, schedule: Q01DX001 (sc), vehicle: steriod suspending solution
[15] = dose: 200.0 mg/kg/injection, schedule: Q01DX001 (sc), vehicle: steriod suspending solution
[16] = dose: 400.0 mg/kg/injection, schedule: Q01DX001 (sc), vehicle: steriod suspending solution
[17] = dose: 100.0 mg/kg/injection, schedule: Q04DX003 (ip), vehicle: saline
[18] = dose: 200.0 mg/kg/injection, schedule: Q04DX003 (ip), vehicle: saline
[19] = dose: 100.0 mg/kg/injection, schedule: Q04DX003 (ip), vehicle: saline with Tween-80
[20] = dose: 100.0 mg/kg/injection, schedule: Q04DX002 (ip), vehicle: saline with Tween-80
[21] = dose: 200.0 mg/kg/injection, schedule: Q04DX002 (ip), vehicle: saline with Tween-80
[22] = dose: 400.0 mg/kg/injection, schedule: Q04DX002 (ip), vehicle: saline with Tween-80

S=c1nc[nH]c2nc[nH]c12.[Ag]
T/C (dose: 3.0 mg/kg/injection, schedule: Q01DX009 (ip), vehicle: carboxymethylcellulose (CMC)): 106 % of control and 92 % of control
T/C (dose: 6.0 mg/kg/injection, schedule: Q01DX009 (ip), vehicle: carboxymethylcellulose (CMC)): 101 % of control
T/C (dose: 12.0 mg/kg/injection, schedule: Q01DX009 (ip), vehicle: carboxymethylcellulose (CMC)): 113 % of control
T/C (dose: 50.0 mg/kg/injection, schedule: Q01DX009 (ip), vehicle: carboxymethylcellulose (CMC)): 113 % of control and 119 % of control
T/C (dose: 400.0 mg/kg/injection, schedule: Q01DX009 (ip), vehicle: carboxymethylcellulose (CMC)): 101 % of control
T/C (dose: 600.0 mg/kg/injection, schedule: Q01DX009 (ip), vehicle: carboxymethylcellulose (CMC)): 154 % of control
T/C (dose: 800.0 mg/kg/injection, schedule: Q01DX009 (ip), vehicle: carboxymethylcellulose (CMC)): 157 % of control and 159 % of control
T/C (dose: 800.0 mg/kg/injection, schedule: Q01DX009 (ip), vehicle: saline): 154 % of control
T/C (dose: 1000.0 mg/kg/injection, schedule: Q01DX009 (ip), vehicle: carboxymethylcellulose (CMC)): 119 % of control
T/C (dose: 1000.0 mg/kg/injection, schedule: Q01DX009 (ip), vehicle: saline): 154 % of control

CCSCC1OC(n2cnc3c(N)ncnc32)CC1SCC (stereo unspecified)
T/C (dose: 50.0 mg/kg/injection, schedule: Q01DX001 (ip), vehicle: carboxymethylcellulose (CMC)): 104 % of control
T/C (dose: 100.0 mg/kg/injection, schedule: Q01DX001 (ip), vehicle: carboxymethylcellulose (CMC)): 104 % of control
T/C [1]: 98 % of control
T/C (dose: 200.0 mg/kg/injection, schedule: Q01DX001 (ip), vehicle: carboxymethylcellulose (CMC)): 111 % of control
T/C [2]: 89 % of control
T/C (dose: 400.0 mg/kg/injection, schedule: Q01DX001 (ip), vehicle: carboxymethylcellulose (CMC)): 101 % of control
T/C [3]: 92 % of control

Oc1ccc2c(ccc3ccc4ccccc4c32)c1
T/C (dose: 100.0 mg/kg/injection, schedule: Q01DX001 (ip), vehicle: alcohol): 103 % of control
T/C (dose: 200.0 mg/kg/injection, schedule: Q01DX001 (ip), vehicle: alcohol): 100 % of control
T/C (dose: 400.0 mg/kg/injection, schedule: Q01DX001 (ip), vehicle: alcohol): 95 % of control

COC12OCC(O)C1OC(=O)C2O (stereo unspecified)
T/C (dose: 50.0 mg/kg/injection, schedule: Q04DX002 (ip), vehicle: saline): 91 % of control
T/C (dose: 100.0 mg/kg/injection, schedule: Q04DX002 (ip), vehicle: saline): 91 % of control
T/C (dose: 200.0 mg/kg/injection, schedule: Q04DX002 (ip), vehicle: saline): 95 % of control

O=C1OC(c2cccc(Cl)c2)=N/C1=C\c1cc(Br)cc(Br)c1O
T/C [4]: 92 % of control
T/C [5]: 100 % of control
T/C [6]: 89 % of control

Cc1ccc(NC(=O)COc2ccc(Cl)cc2)c(C)c1
T/C (dose: 100.0 mg/kg/injection, schedule: Q01DX001 (ip), vehicle: Klucel (hydroxypropylcellulose) (HPC)): 99 % of control
T/C [7]: 100 % of control
T/C [8]: 96 % of control
T/C (dose: 200.0 mg/kg/injection, schedule: Q01DX001 (ip), vehicle: Klucel (hydroxypropylcellulose) (HPC)): 99 % of control
T/C (dose: 200.0 mg/kg/injection, schedule: Q01DX009 (ip), vehicle: Klucel (hydroxypropylcellulose) (HPC)): 102 % of control
T/C [9]: 96 % of control
T/C (dose: 400.0 mg/kg/injection, schedule: Q01DX001 (ip), vehicle: Klucel (hydroxypropylcellulose) (HPC)): 99 % of control
T/C [10]: 98 % of control

CC12CCC=CC1=CC(=O)CC2 (stereo unspecified)
T/C [11]: 98 % of control
T/C [12]: 106 % of control
T/C [13]: 103 % of control

N#C/C(=C\C1CCCC([N+](=O)[O-])C1)C1CCC([N+](=O)[O-])CC1 (stereo unspecified)
T/C [4]: 122 % of control
T/C [5]: 100 % of control
T/C [6]: 100 % of control

C[C@@H]1CC2=CC(=O)C=C[C@]2(C)[C@H]2CC[C@@]3(C)[C@@H](CC[C@]3(C)O)[C@H]12
T/C [14]: 104 % of control
T/C [15]: 106 % of control
T/C [16]: 97 % of control

CCOC(=O)N1Cc2cc3cc4c(cc3nc2C1)OCO4
T/C [17]: 94 % of control
T/C [18]: 94 % of control
T/C (dose: 400.0 mg/kg/injection, schedule: Q04DX003 (ip), vehicle: saline): 96 % of control

CC(Cc1ccccc1)NC(C#N)c1ccccc1 (stereo unspecified)
T/C (dose: 12.5 mg/kg/injection, schedule: Q01DX009 (ip), vehicle: Klucel (hydroxypropylcellulose) (HPC)): 107 % of control
T/C (dose: 25.0 mg/kg/injection, schedule: Q01DX009 (ip), vehicle: Klucel (hydroxypropylcellulose) (HPC)): 88 % of control
T/C (dose: 25.0 mg/kg/injection, schedule: Q04DX003 (ip), vehicle: Klucel (hydroxypropylcellulose) (HPC)): 98 % of control
T/C (dose: 25.0 mg/kg/injection, schedule: Q04DX003 (ip), vehicle: saline with Tween-80): 97 % of control
T/C (dose: 50.0 mg/kg/injection, schedule: Q01DX009 (ip), vehicle: Klucel (hydroxypropylcellulose) (HPC)): 91 % of control
T/C (dose: 50.0 mg/kg/injection, schedule: Q04DX003 (ip), vehicle: Klucel (hydroxypropylcellulose) (HPC)): 109 % of control
T/C (dose: 50.0 mg/kg/injection, schedule: Q04DX003 (ip), vehicle: saline with Tween-80): 100 % of control
T/C [7]: 96 % of control
T/C [8]: 109 % of control
T/C [19]: 92 % of control
T/C [9]: 101 % of control

CC(=O)OC1CC(OC2C(O)CC(OC3C(O)CC(OC4CCC5(C)C(CCC6C5CC(O)C5(C)C(C7=CC(=O)OC7)CCC65O)C4)OC3C)OC2C)OC(C)C1OC1OC(CO)C(O)C(O)C1O (stereo unspecified)
T/C (dose: 50.0 mg/kg/injection, schedule: Q01DX001 (sc), vehicle: steriod suspending solution): 100 % of control
T/C [11]: 95 % of control
T/C [14]: 109 % of control
T/C [12]: 97 % of control
T/C [15]: 103 % of control
T/C [13]: 93 % of control
T/C [16]: 105 % of control

Nc1cc(Cl)cc(Cl)c1C(=O)O
T/C (dose: 50.0 mg/kg/injection, schedule: Q01DX009 (ip), vehicle: other): 100 % of control
T/C (dose: 100.0 mg/kg/injection, schedule: Q01DX009 (ip), vehicle: other): 94 % of control
T/C [17]: 90 % of control
T/C [18]: 90 % of control

NC(=S)Nc1ccncc1
T/C [4]: 92 % of control
T/C [5]: 106 % of control
T/C [6]: 95 % of control

O=[N+]([O-])c1ccc2c(c1)/C(=C1/c3cc(Br)ccc3-c3ccc([N+](=O)[O-])cc31)c1cc(Br)ccc1-2
T/C [19]: 87 % of control
T/C (dose: 200.0 mg/kg/injection, schedule: Q04DX003 (ip), vehicle: saline with Tween-80): 97 % of control
T/C (dose: 400.0 mg/kg/injection, schedule: Q04DX003 (ip), vehicle: saline with Tween-80): 92 % of control

NCc1cn(C2OC(CO)C(O)C2O)c2ncnc(N)c12 (stereo unspecified)
T/C (dose: 1.56 mg/kg/injection, schedule: Q01DX009 (ip), vehicle: saline): 90 % of control
T/C (dose: 3.12 mg/kg/injection, schedule: Q01DX005 (ip), vehicle: saline): 92 % of control
T/C (dose: 3.12 mg/kg/injection, schedule: Q01DX009 (ip), vehicle: saline): 107 % of control
T/C (dose: 6.25 mg/kg/injection, schedule: Q01DX005 (ip), vehicle: saline): 108 % of control

CCn1c(C)cc(=O)n1-c1ccc([N+](=O)[O-])cc1
T/C [8]: 96 % of control
T/C [9]: 104 % of control
T/C [10]: 98 % of control

COC1(OC)C2(Cl)C3C(=O)C4C5C(=O)C3C1(Cl)C5(Cl)C42Cl (stereo unspecified)
T/C [1]: 105 % of control
T/C [2]: 94 % of control
T/C [3]: 89 % of control

N#C/C(=C\c1cccn1Cc1ccc2ccccc2c1)C(N)=O
T/C [20]: 104 % of control
T/C [21]: 96 % of control
T/C [22]: 93 % of control

CCCCS(=O)(=O)N1CCCC(C)C1 (stereo unspecified)
T/C [4]: 100 % of control
T/C [5]: 107 % of control
T/C [6]: 103 % of control

Cc1ccc(S(=O)(=O)OCC(C)([N+](=O)[O-])[N+](=O)[O-])cc1
T/C [20]: 94 % of control
T/C [21]: 97 % of control
T/C [22]: 101 % of control

CC(=O)Cc1cc(C)nc(/N=C(\N)N2CCOCC2)n1
T/C [4]: 100 % of control
T/C [5]: 92 % of control
T/C [6]: 88 % of control
